In patent EP0888055B1, “HERBICIDAL COMPOSITION AND METHOD OF WEED CONTROL” (Novartis AG, priority 1996, dated 1997):

Key:
[1] = tested on: Euphorbia; assay: Pre-emergence test (Example B2); assay type: in vivo
Excerpt: (§1) The expected herbicidal action E for a given combination of two herbicides can be calculated as follows (see COLBY, S.R., "Calculating synergistic and antagonistic response of herbicide combinations", Weeds 15, pages 20-22, 1967): E = X +(Y • (100 - X))/(100) [formula]
(§2) In the above formula: X = percentage growth inhibition in the case of treatment with the compound of formula A at a rate of application of p kg per hectare compared with the untreated control (= 0 %). Y = percentage herbicidal action in the case of treatment with one of the mixing partners at a rate of application of q kg per hectare compared with the untreated control. E = Expected herbicidal action (percentage herbicidal action compared with the untreated control) after treatment with the compounds of formulae A and the mixing partners at a rate of application of p + q kg of active ingredient per hectare.
(§3) The test plants are sown in plastics pots in standard soil. Directly after sowing the test compounds are applied by spraying, separately or in admixture, in the form of an aqueous suspension of the test compounds (Formulation Example F8, c) and d)) or in the form of an emulsion concentrate (Formulation Example F1, d)) in 500 l of water/ha. The rates of application conform to the optimum concentrations ascertained under field conditions and greenhouse conditions. The test plants are then cultivated in the greenhouse under optimum conditions. After 34 days' (Tables B2 to B5) and 41 days' (Table B6) test duration, the test is evaluated (% action, 100 % = plants have died, 0 % = no phytotoxic action). From 61 to 80 % (especially from 81 to 100 %) phytotoxicity indicates good to very good herbicidal action in weeds; from 0 to 15 % (especially from 0 to 5 %) phytotoxicity indicates good to very good tolerance in useful plants.
(§4) Test plants: abutilon, bidens, euphorbia, ipomoea, sesbamia, xanthium, rottboellia, sida, Sorghum bicolor.

[2] = tested on: Abutilon; assay: Pre-emergence test (Example B2); assay type: in vivo
Excerpt: as §1, §2, §3, §4

[3] = tested on: Xanthium; assay: Pre-emergence test (Example B2); assay type: in vivo; conditions: 34 days
Excerpt: as §1, §2, §3, §4

[4] = tested on: Bidens; assay: Pre-emergence test (Example B2); assay type: in vivo; conditions: 34 days
Excerpt: as §1, §2, §3, §4

[5] = tested on: Ipomoea; assay: Pre-emergence test (Example B2); assay type: in vivo
Excerpt: as §1, §2, §3, §4

[6] = tested on: Maize; assay: Pre-emergence test (Example B2), tolerance of useful plant; assay type: in vivo
Excerpt: as §3

[7] = tested on: Rottboellia; assay: Pre-emergence test (Example B2); assay type: in vivo
Excerpt: as §1, §2, §3, §4

[8] = tested on: Sesbania; assay: Pre-emergence test (Example B2); assay type: in vivo; conditions: 34 days
Excerpt: as §1, §2, §3, §4

[9] = tested on: Sida; assay: Pre-emergence test (Example B2); assay type: in vivo
Excerpt: as §1, §2, §3, §4

[10] = tested on: Brachiaria; assay: Pre-emergence test (Example B2); assay type: in vivo; conditions: 34 days
Excerpt: as §1, §2, §3

[11] = tested on: Panicum; assay: Post-emergence test (Example B1); assay type: in vivo; conditions: 100 g active ingredient/ha, 24 days
Excerpt: as §1, §2
(§5) The test plant seeds are grown to the 4- to 6-leaf stage under greenhouse conditions in plastics pots. The culture substrate used is a standard soil. At the 4- to 6-leaf stage the herbicides are applied separately and in admixture to the test plants. The test compounds are applied in the form of an aqueous suspension (Formulation Example F8, c)) in 500 l of water/ha. The rates of application conform to the optimum concentrations ascertained under field conditions and greenhouse conditions. Evaluation of the tests is carried out after 24 days. The following linear scale is used as a measure (% action): • 100 % = plants have died • 50 % = moderate action • 0 % = no phytotoxic action (as untreated control).
(§6) Test plants: brachiaria, cyperus, digitaria, echinochloa, panicum.

[12] = tested on: Echinochloa; assay: Post-emergence test (Example B1); assay type: in vivo; conditions: 24 days
Excerpt: as §1, §2, §5, §6

[13] = tested on: Digitaria; assay: Post-emergence test (Example B1); assay type: in vivo; conditions: 100 g active ingredient/ha, 24 days
Excerpt: as §1, §2, §5, §6

[14] = tested on: Brachiaria; assay: Post-emergence test (Example B1); assay type: in vivo; conditions: 24 days
Excerpt: as §1, §2, §5, §6

[15] = tested on: Sorghum bic.; assay: Pre-emergence test (Example B2); assay type: in vivo, Sorghum bicolor; conditions: 1000 g active ingredient/ha, 41 days
Excerpt: as §1, §2
The test plants are sown in plastics pots in standard soil. Directly after sowing the test compounds are applied by spraying, separately or in admixture, in the form of an aqueous suspension of the test compounds (Formulation Example F8, c) and d)) or in the form of an emulsion concentrate (Formulation Example F1, d)) in 500 l of water/ha. […] After 34 days' (Tables B2 to B5) and 41 days' (Table B6) test duration, the test is evaluated (% action, 100 % = plants have died, 0 % = no phytotoxic action). […]

[16] = 125 g active ingredient/ha, 34 days
[17] = 500 g active ingredient/ha, 34 days
[18] = 250 g active ingredient/ha, 34 days
[19] = 1000 g active ingredient/ha, 34 days
[20] = 150 g active ingredient/ha, 34 days
[21] = 300 g active ingredient/ha, 34 days
[22] = 600 g active ingredient/ha, 34 days
[23] = 500 g active ingredient/ha, 41 days
[24] = 125 g active ingredient/ha, 41 days
[25] = 250 g active ingredient/ha, 41 days
[26] = 1000 g active ingredient/ha, 41 days

CCNc1nc(Cl)nc(NC(C)C)n1 [Atra, atrazine]
Herbicidal activity, Weed: Euphorbia [1, 16]: 0% | Herbicidal activity, Weed: Abutilon [2, 16]: 0% | Herbicidal activity, Weed: Abutilon [2, 17]: 98% | Herbicidal activity, Weed: Xanthium ([3]; 250 g active ingredient/ha): 0% | Herbicidal activity, Weed: Xanthium ([3]; 500 g active ingredient/ha): 95% | Herbicidal activity, Weed: Bidens ([4]; 125 g active ingredient/ha): 60% | Herbicidal activity, Weed: Ipomoea [5, 16]: 0% | Herbicidal activity, Weed: Ipomoea [5, 18]: 70% | Herbicidal activity, Useful plant: Maize [6, 16]: 0% | Herbicidal activity, Useful plant: Maize [6, 18]: 0% | Herbicidal activity, Useful plant: Maize [6, 17]: 0%

CCc1cccc(C)c1N(C(=O)CCl)C(C)COC (racemic) [Met.rac., metolachlor]
Herbicidal activity, Weed: Euphorbia [1, 17]: 0% | Herbicidal activity, Weed: Rottboellia [7, 19]: 0% | Herbicidal activity, Weed: Abutilon [2, 17]: 20% | Herbicidal activity, Weed: Abutilon [2, 19]: 20% | Herbicidal activity, Weed: Bidens ([4]; 1000 g active ingredient/ha): 30% | Herbicidal activity, Weed: Ipomoea [5, 19]: 0% | Herbicidal activity, Weed: Sesbania ([8]; 1000 g active ingredient/ha): 60% | Herbicidal activity, Weed: Sida [9, 18]: 0% | Herbicidal activity, Weed: Sida [9, 17]: 50% | Herbicidal activity, Useful plant: Maize [6, 18]: 0% | Herbicidal activity, Useful plant: Maize [6, 17]: 0% | Herbicidal activity, Useful plant: Maize [6, 19]: 0%

CCc1cccc(C)c1N(C(=O)CCl)[C@@H](C)COC [Met-S, aRS,1'S(-)-N-(1'-methyl-2'-methoxyethyl)-N-chloroacetyl-2-ethyl-6-methylaniline]
Herbicidal activity, Weed: Euphorbia [1, 20]: 0% | Herbicidal activity, Weed: Euphorbia [1, 21]: 0% | Herbicidal activity, Weed: Euphorbia [1, 22]: 0% | Herbicidal activity, Weed: Abutilon [2, 20]: 0% | Herbicidal activity, Weed: Abutilon [2, 21]: 10% | Herbicidal activity, Weed: Xanthium ([3]; 300 g active ingredient/ha): 0% | Herbicidal activity, Weed: Xanthium ([3]; 600 g active ingredient/ha): 20% | Herbicidal activity, Weed: Sida [9, 20]: 0% | Herbicidal activity, Weed: Sida [9, 21]: 40% | Herbicidal activity, Useful plant: Maize [6, 20]: 0% | Herbicidal activity, Useful plant: Maize [6, 21]: 10% | Herbicidal activity, Useful plant: Maize [6, 22]: 10% | Herbicidal activity, Weed: Brachiaria ([10]; 150 g active ingredient/ha): 20% | Herbicidal activity, Weed: Brachiaria ([10]; 300 g active ingredient/ha): 50%

CCNc1nc(Cl)nc(NC(C)(C)C)n1 [Terb, terbuthylazine]
Herbicidal activity, Weed: Euphorbia [1, 16]: 40% | Herbicidal activity, Weed: Euphorbia [1, 18]: 70% | Herbicidal activity, Weed: Euphorbia [1, 17]: 95% | Herbicidal activity, Weed: Abutilon [2, 18]: 30% | Herbicidal activity, Weed: Abutilon [2, 17]: 90% | Herbicidal activity, Weed: Bidens ([4]; 125 g active ingredient/ha): 0% | Herbicidal activity, Weed: Bidens ([4]; 250 g active ingredient/ha): 60% | Herbicidal activity, Weed: Ipomoea [5, 16]: 0% | Herbicidal activity, Weed: Ipomoea [5, 17]: 95% | Herbicidal activity, Weed: Sesbania ([8]; 250 g active ingredient/ha): 80% | Herbicidal activity, Useful plant: Maize [6, 16]: 0% | Herbicidal activity, Useful plant: Maize [6, 18]: 0% | Herbicidal activity, Useful plant: Maize [6, 17]: 0%

O=C(O)CNCP(=O)(O)O [Gly, glyphosate]
Herbicidal activity, Weed: Panicum [11]: 70% | Herbicidal activity, Weed: Echinochloa ([12]; 200 g active ingredient/ha): 0% | Herbicidal activity, Weed: Echinochloa ([12]; 400 g active ingredient/ha): 20% | Herbicidal activity, Weed: Digitaria [13]: 25% | Herbicidal activity, Weed: Brachiaria ([14]; 200 g active ingredient/ha): 60% | Herbicidal activity, Weed: Brachiaria ([14]; 300 g active ingredient/ha): 70% | Herbicidal activity, Weed: Brachiaria ([14]; 400 g active ingredient/ha): 70%

COCC(C)N(C(=O)CCl)c1c(C)csc1C (stereo not drawn) [Dime, dimethenamid]
Herbicidal activity, Weed: Euphorbia [1, 23]: 30% | Herbicidal activity, Weed: Rottboellia [7, 24]: 20% | Herbicidal activity, Weed: Abutilon [2, 25]: 10% | Herbicidal activity, Weed: Ipomoea [5, 26]: 0% | Herbicidal activity, Weed: Sida [9, 25]: 40% | Herbicidal activity, Weed: Sida [9, 23]: 85% | Herbicidal activity, Weed: Sida [9, 26]: 95% | Herbicidal activity, Useful plant: Maize [6, 24]: 0% | Herbicidal activity, Useful plant: Maize [6, 25]: 0% | Herbicidal activity, Useful plant: Maize [6, 23]: 0% | Herbicidal activity, Useful plant: Maize [6, 26]: 20% | Herbicidal activity, Weed: Sorghum bic. [15]: 80%
